Assay results: ChEMBL document CHEMBL2384904, “Discovery of potent, selective, bioavailable phosphodiesterase 2 (PDE2) inhibitors active in an osteoarthritis pain model, part I: transformation of selective pyrazolodiazepinone phosphodiesterase 4 (PDE4) inhibitors into selective PDE2 inhibitors” (Bioorg Med Chem Lett, 2013)

What was measured:
[1] = biological target: cGMP-dependent 3',5'-cyclic phosphodiesterase (Homo sapiens, UniProt O00408); assay: Inhibition of PDE2 (unknown origin)
[2] = biological target: 3',5'-cyclic-AMP phosphodiesterase 4B (Homo sapiens, UniProt Q07343); assay: Inhibition of PDE4B (unknown origin)
Homo sapiens [3] = species: Homo sapiens; assay: Selectivity ratio of IC50 for PDE4B (unknown origin) to IC50 for PDE2 (unknown origin)
Homo sapiens [4] = species: Homo sapiens; assay: Selectivity ratio of IC50 for PDE4 (unknown origin) to IC50 for PDE2 (unknown origin)
Phosphodiesterase 4 = Phosphodiesterase 4 (Homo sapiens, UniProt P27815+Q08499+Q07343+Q08493); assay: Inhibition of PDE4 (unknown origin); assay type: protein assay
in vitro = conditions: human, liver microsomes
[5] = biological target: cAMP and cAMP-inhibited cGMP 3',5'-cyclic phosphodiesterase 10A (Homo sapiens) (UniProt Q9Y233); assay: Inhibition of PDE10 (unknown origin)
[6] = biological target: Phosphodiesterase 8 (Homo sapiens) (UniProt O95263+O60658); assay: Inhibition of PDE8 (unknown origin); assay type: protein assay
[7] = Half life in po dosed rat; assay type: ADME, organism-based; conditions: in vivo
[8] = biological target: Phosphodiesterase 6 (Homo sapiens) (UniProt Q13956+P18545+P35913+O43924+P16499+P51160); assay: Inhibition of PDE6 (unknown origin); assay type: protein assay
[9] = biological target: Phosphodiesterase 1 (Homo sapiens) (UniProt P54750+Q01064+Q14123); assay: Inhibition of PDE1 (unknown origin); assay type: protein assay
[10] = Bioavailability in rat; assay type: ADME, organism-based; conditions: in vivo
[11] = biological target: Phosphodiesterase 3 (Homo sapiens) (UniProt Q14432+Q13370); assay: Inhibition of PDE3 (unknown origin); assay type: protein assay
[12] = biological target: cGMP-specific 3',5'-cyclic phosphodiesterase (Homo sapiens) (UniProt O76074); assay: Inhibition of PDE5 (unknown origin)
[13] = biological target: High affinity cGMP-specific 3',5'-cyclic phosphodiesterase 9A (Homo sapiens) (UniProt O76083); assay: Inhibition of PDE9 (unknown origin)
[14] = Half life in iv dosed rat; assay type: ADME, organism-based; conditions: in vivo
[15] = biological target: Phosphodiesterase 7 (Homo sapiens) (UniProt Q13946+Q9NP56); assay: Inhibition of PDE7 (unknown origin); assay type: protein assay
[16] = biological target: Dual 3',5'-cyclic-AMP and -GMP phosphodiesterase 11A (Homo sapiens) (UniProt Q9HCR9); assay: Inhibition of PDE11 (unknown origin)

3',5'-cyclic-AMP phosphodiesterase 4B, sequence (Q07343 whole entry): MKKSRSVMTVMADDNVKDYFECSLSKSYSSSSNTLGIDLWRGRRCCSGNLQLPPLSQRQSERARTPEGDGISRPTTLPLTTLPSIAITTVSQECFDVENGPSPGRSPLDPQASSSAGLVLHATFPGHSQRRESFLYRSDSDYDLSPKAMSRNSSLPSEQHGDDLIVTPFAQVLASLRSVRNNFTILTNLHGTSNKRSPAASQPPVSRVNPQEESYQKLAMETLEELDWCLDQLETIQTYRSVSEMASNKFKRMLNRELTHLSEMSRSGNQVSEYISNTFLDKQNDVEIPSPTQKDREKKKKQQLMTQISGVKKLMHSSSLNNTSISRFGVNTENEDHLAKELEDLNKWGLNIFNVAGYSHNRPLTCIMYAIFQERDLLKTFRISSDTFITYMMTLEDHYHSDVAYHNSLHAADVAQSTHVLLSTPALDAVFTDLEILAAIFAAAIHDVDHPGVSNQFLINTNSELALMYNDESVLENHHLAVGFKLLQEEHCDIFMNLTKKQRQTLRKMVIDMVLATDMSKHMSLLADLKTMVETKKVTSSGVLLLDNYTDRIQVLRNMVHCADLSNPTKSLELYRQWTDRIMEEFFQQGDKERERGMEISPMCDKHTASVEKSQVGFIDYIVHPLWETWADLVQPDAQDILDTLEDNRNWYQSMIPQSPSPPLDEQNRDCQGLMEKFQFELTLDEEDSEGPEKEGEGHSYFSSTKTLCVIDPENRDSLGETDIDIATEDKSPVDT
cGMP-dependent 3',5'-cyclic phosphodiesterase, sequence (O00408 whole entry): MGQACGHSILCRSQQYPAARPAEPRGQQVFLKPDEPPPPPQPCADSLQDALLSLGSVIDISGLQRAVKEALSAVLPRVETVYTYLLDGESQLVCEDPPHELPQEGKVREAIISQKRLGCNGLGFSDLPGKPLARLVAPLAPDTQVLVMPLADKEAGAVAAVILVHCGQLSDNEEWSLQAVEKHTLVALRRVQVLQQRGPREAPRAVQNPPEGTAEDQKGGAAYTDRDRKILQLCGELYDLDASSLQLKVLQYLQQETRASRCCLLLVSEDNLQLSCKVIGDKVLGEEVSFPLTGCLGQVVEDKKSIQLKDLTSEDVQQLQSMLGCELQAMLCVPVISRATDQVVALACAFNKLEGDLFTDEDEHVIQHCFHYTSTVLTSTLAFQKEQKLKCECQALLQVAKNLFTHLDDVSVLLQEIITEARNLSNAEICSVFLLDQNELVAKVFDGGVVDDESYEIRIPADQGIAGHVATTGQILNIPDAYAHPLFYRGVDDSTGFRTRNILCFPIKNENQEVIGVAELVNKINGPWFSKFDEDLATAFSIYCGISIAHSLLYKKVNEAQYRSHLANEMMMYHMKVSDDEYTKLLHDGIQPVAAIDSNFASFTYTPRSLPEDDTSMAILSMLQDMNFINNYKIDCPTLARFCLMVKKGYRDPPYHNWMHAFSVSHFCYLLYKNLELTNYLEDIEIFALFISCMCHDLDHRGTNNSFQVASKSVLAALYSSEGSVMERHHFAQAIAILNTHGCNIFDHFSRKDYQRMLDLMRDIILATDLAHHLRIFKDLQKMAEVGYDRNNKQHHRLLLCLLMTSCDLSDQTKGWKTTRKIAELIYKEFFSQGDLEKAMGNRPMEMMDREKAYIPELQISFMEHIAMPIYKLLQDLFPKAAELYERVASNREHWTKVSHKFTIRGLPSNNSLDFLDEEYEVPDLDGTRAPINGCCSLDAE
High affinity cGMP-specific 3',5'-cyclic phosphodiesterase 9A (Homo sapiens), sequence (O76083 whole entry): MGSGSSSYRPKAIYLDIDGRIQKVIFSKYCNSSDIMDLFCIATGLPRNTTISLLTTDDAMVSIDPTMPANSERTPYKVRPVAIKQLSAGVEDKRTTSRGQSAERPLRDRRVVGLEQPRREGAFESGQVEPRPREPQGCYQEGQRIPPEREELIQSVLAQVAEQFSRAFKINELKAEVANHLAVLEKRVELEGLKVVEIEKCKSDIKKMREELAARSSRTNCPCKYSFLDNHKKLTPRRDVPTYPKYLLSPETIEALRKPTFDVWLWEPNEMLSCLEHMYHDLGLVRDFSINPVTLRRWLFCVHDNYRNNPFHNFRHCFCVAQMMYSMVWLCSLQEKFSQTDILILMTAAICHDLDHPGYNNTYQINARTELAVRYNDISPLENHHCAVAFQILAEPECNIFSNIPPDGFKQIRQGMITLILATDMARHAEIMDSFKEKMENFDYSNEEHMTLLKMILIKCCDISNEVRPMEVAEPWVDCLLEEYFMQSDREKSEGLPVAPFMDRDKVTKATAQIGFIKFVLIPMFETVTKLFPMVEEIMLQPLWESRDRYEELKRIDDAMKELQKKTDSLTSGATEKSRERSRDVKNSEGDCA
cAMP and cAMP-inhibited cGMP 3',5'-cyclic phosphodiesterase 10A (Homo sapiens), sequence (Q9Y233 whole entry): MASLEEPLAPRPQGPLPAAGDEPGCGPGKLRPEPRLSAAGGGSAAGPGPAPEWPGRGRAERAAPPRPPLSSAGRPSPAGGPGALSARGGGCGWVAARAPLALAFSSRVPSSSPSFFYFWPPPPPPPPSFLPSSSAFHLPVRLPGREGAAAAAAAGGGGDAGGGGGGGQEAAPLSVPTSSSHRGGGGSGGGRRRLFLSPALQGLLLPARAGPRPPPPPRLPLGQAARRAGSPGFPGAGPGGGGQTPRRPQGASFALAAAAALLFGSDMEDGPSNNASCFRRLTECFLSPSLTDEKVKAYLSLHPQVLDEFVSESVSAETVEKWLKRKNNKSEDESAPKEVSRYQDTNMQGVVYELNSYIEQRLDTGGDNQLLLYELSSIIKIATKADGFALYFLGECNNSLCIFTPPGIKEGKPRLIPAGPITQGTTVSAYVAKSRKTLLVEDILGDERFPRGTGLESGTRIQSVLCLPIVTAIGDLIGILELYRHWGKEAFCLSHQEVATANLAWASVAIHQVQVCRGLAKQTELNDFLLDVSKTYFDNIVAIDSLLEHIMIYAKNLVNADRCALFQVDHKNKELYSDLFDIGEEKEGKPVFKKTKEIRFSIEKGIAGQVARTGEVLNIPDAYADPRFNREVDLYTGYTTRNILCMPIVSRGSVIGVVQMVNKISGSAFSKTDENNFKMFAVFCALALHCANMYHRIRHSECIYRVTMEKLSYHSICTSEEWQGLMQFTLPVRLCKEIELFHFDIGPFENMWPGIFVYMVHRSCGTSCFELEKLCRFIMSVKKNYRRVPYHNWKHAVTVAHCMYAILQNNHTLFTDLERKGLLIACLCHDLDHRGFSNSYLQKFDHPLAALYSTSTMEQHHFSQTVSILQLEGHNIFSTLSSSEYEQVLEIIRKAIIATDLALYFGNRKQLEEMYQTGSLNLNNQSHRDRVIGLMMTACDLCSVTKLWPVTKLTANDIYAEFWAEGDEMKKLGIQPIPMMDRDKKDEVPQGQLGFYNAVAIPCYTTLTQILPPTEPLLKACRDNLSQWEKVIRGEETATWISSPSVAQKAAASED
Phosphodiesterase 7 (Homo sapiens), sequence (Q13946 whole entry, looked up): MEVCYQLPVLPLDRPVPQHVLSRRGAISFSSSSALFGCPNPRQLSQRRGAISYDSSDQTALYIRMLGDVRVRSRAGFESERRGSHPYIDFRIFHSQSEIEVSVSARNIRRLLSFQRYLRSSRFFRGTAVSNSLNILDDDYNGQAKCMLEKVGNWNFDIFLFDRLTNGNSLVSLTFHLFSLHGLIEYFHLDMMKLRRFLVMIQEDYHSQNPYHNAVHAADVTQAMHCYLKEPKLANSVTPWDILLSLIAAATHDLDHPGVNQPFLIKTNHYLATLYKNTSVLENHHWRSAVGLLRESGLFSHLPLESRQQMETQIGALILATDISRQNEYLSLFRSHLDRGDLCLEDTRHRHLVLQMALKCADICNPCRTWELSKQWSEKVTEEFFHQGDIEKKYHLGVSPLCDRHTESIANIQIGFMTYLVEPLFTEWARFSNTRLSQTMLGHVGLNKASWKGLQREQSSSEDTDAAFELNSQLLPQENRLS
Phosphodiesterase 7 (Homo sapiens), sequence (Q9NP56 whole entry, looked up): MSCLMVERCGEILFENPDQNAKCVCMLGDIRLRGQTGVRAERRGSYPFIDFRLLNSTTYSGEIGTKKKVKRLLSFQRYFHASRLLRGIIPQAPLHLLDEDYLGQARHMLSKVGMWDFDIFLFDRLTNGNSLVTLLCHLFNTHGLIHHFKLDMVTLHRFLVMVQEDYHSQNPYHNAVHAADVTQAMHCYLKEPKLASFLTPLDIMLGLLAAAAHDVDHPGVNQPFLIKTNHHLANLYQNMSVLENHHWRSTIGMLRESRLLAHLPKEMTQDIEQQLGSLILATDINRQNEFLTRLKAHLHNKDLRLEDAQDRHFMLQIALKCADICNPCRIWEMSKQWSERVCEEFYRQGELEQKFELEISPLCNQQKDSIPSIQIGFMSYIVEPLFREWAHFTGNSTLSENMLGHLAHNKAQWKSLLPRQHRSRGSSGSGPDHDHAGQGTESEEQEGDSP

IC50 [1] [nM]	IC50 [2] [nM]	Ratio IC50 (Homo sapiens [3])	Ratio IC50 (Homo sapiens [4])	IC50 (Phosphodiesterase 4) [nM]	half-life (in vitro) [min]	SMILES	also measured
800	–	–	–	–	–	CCCCCC[C@@H]([C@@H](C)O)n1cnc2c(N)ncnc21 (relative stereo) [EHNA]	–
54	583	11	11	538	5	CCC(CC)c1nn(CCO)c2c1N=C(c1ccc(-n3ccnc3C)cc1)CNC2=O	–
102	–	–	0.7	76	20	CCC(CC)c1nn(CCO)c2c1N=C(c1ccccc1)CNC2=O	–
23	–	–	2	48	23	CCC(CC)c1nn(CCO)c2c1N=C(c1ccc(OC)c(OC)c1)CNC2=O	–
328	–	–	33	10800	6	CCC(CC)c1nn(CCCO)c2c1N=C(c1ccc(-n3ccnc3C)cc1)CNC2=O	–
259	–	–	0.12	31	–	CC(C)(C)c1nn(CCO)c2c1N=C(c1ccc(F)cc1)CNC2=O	–
45	378	8	–	–	7	CCC(C)(C)c1nn(CCO)c2c1N=C(c1ccc(-n3ccnc3C)cc1)CNC2=O	–
97	330	3	–	–	12	CC(C)c1nccn1-c1ccc(C2=Nc3c(C(C)(C)C)nn(CCO)c3C(=O)NC2)cc1	–
105	1950	19	–	–	9	CCC(C)(C)c1nn(CCO)c2c1N=C(c1ccc(-n3cc(C)nc3C)cc1)CNC2=O	–
840	–	–	0.0015	1.2	–	CCC(CC)c1nn(CC)c2c1N=C(c1ccc(C(=O)O)cc1)CNC2=O	INH [5]: > 5 µM; INH [6]: > 5 µM; half-life [7]: 5 h; INH [8]: > 5 µM; INH [9]: > 5 µM; bioavailability [10]: 80%; INH [11]: > 5 µM; INH [12]: > 5 µM; INH [13]: > 5 µM; half-life [14]: 1.9 h; INH [15]: > 5 µM; INH [16]: > 5 µM
–	–	–	–	–	36	CCC(CC)c1nn(CCCO)c2c1N=C(c1ccccc1)CNC2=O	–
93	–	–	4	365	44	CCC(CC)c1nn(CCCO)c2c1N=C(c1ccc(OC)c(OC)c1)CNC2=O	–

SMILES	IC50 [1] [nM]	IC50 [2] [nM]	Ratio IC50 (Homo sapiens [3])	Ratio IC50 (Homo sapiens [4])	IC50 (Phosphodiesterase 4) [nM]	half-life (in vitro) [min]	also measured
COc1ccc(Cc2nn3c([C@@H](CCc4ccccc4)[C@@H](C)O)nc(C)c3c(=O)[nH]2)cc1OO	4.7	–	–	–	–	–	–
